In ChEMBL document CHEMBL1255349, “Comparison of the efficacies of oral beta-lactams in selection of Haemophilus influenzae transformants with mutated ftsI genes” (2008):
≈ marks a conversion by molar mass, not a printed value.

Experiments:
Assay type in all cases: functional
[1] = tested on: Haemophilus influenzae; assay: Antimicrobial activity against rifampin-resistant Haemophilus influenzae Rd clone by broth dilution method
[2] = tested on: Haemophilus influenzae; assay: Antimicrobial activity against beta lactamase-nonproducing ampicillin-resistant Haemophilus influenzae MSC06647 isolate harboring Asn526Lys mutation in penicillin-binding protein 3 by broth dilution method
[3] = tested on: Haemophilus influenzae; assay: Antimicrobial activity against beta lactamase-nonproducing ampicillin-resistant Haemophilus influenzae MSC06663 isolate harboring Met377Ile, Ser385Thr and Asn526Lys mutations in penicillin-binding protein 3 by broth dilution method

Structure (SMILES)	MIC [1]	MIC [2]	MIC [3]
CC1(C)S[C@@H]2[C@H](NC(=O)[C@H](N)c3ccc(O)cc3)C(=O)N2[C@H]1C(=O)O [AMOXICILLIN]	0.5 µg/mL (≈ 1.37 µM)	4 µg/mL (≈ 10.9 µM)	1 µg/mL (≈ 2.74 µM)
CC1(C)S[C@@H]2[C@H](NC(=O)[C@H](N)c3ccccc3)C(=O)N2[C@H]1C(=O)O [AMPICILLIN]	0.25 µg/mL (≈ 0.715 µM)	2 µg/mL (≈ 5.72 µM)	1 µg/mL (≈ 2.86 µM)
CC/C=C(\C(=O)N[C@@H]1C(=O)N2C(C(=O)O)=C(COC(N)=O)CS[C@H]12)c1csc(N)n1 [CEFCAPENE]	0.008 µg/mL (≈ 0.0176 µM)	0.25 µg/mL (≈ 0.551 µM)	2 µg/mL (≈ 4.41 µM)
C=CC1=C(C(=O)O)N2C(=O)[C@@H](NC(=O)/C(=N\O)c3csc(N)n3)[C@H]2SC1 [CEFDINIR]	0.25 µg/mL (≈ 0.632 µM)	1 µg/mL (≈ 2.53 µM)	2 µg/mL (≈ 5.06 µM)
CO/N=C(\C(=O)N[C@@H]1C(=O)N2C(C(=O)OCOC(=O)C(C)(C)C)=C(/C=C\c3scnc3C)CS[C@H]12)c1csc(N)n1 [CEFDITOREN PIVOXIL]	0.008 µg/mL (≈ 0.0129 µM)	0.06 µg/mL (≈ 0.0967 µM)	0.5 µg/mL (≈ 0.805 µM)
COCC1=C(C(=O)O)N2C(=O)[C@@H](NC(=O)/C(=N\OC)c3csc(N)n3)[C@H]2SC1 [CEFPODOXIME]	0.03 µg/mL (≈ 0.0702 µM)	1 µg/mL (≈ 2.34 µM)	8 µg/mL (≈ 18.7 µM)
CC=CC1=C(C(=O)O)N2C(=O)[C@@H](NC(=O)[C@H](N)c3ccc(O)cc3)[C@H]2SC1 [CEFPROZIL]	2 µg/mL (≈ 5.14 µM)	4 µg/mL (≈ 10.3 µM)	4 µg/mL (≈ 10.3 µM)
CO/N=C(\C(=O)N[C@@H]1C(=O)N2C(C(=O)O)=C(COC(N)=O)CS[C@H]12)c1ccco1 [CEFUROXIME]	0.5 µg/mL (≈ 1.18 µM)	2 µg/mL (≈ 4.71 µM)	2 µg/mL (≈ 4.71 µM)
C[C@@H](O)[C@H]1C(=O)N2C(C(=O)O)=C(SC3CN(C4=NCCS4)C3)[C@H](C)[C@H]12 [TEBIPENEM]	0.06 µg/mL (≈ 0.156 µM)	1 µg/mL (≈ 2.61 µM)	0.25 µg/mL (≈ 0.652 µM)
